{"source": "patent US9096852B2", "about": "“Inhibitors of micro-RNAs for use for preventing and/or attenuating skin ageing and/or for hydrating skin” (CHANEL PARFUMS BEAUTE, priority 2010, dated 2015)", "molecules": {"B1": {"name": "pre-miR-191: human pre-miR-191 (Ambion) transfected to over-express miR-191 (SEQ ID No. 4) (nucleic acid)", "chain": "CGGCUGGACAGCGGGCAACGGAAUCCCAAAAGCAGCUGUUGUCUCCAGAGCAUUCCAGCUGCGCUUGGAUUUCGUCCCCUGCUCUCCUGCCU", "modifications": "precursor form, further chemistry not given here"}}, "key": {"Mir 130a": {"system": "Mir 130a", "assay": "Screening of active compounds: miR-130a expression by real time PCR in keratinocytes", "format": "cell-based, human", "details": "48 hours", "description": "(§1) Neonatal Human Primary Epidermal Keratinocytes (Hekn, Cascade, Invitrogen, Carlsbad, Calif., USA) were cultured in EpiLife medium added with HKGS growth supplements (Cascade). Cells were constantly kept subconfluent in order to avoid triggering of a differentiation process. Cells were passaged usually once a week, at each passage the harvested cells number and seeded cell number were recorded in order to calculate the population doublings occurring between passages and the population doubling time. At passage 2 300.000 keratinocytes were plated in 60 mm dishes. The day after the cells were treated with the compounds at the indicated concentration for 48 hours without changing of the media. Cells were collected by scraping in medium. Cells were centrifuged at 800 g for 5 min and RNA was extracted.\nTotal RNA from cells was isolated using mirVana mirRNA Isolation Kit (Ambion) by following the manufacturer's protocol for total RNA extraction. Total RNA was quantified using a NanoDrop Spectophotometer (Thermo Scientific, Delaware, USA) and RNA quality was controlled on an agarose gel. For microRNA detection, RNA was reverse transcribed using TaqMan MicroRNA Reverse Transcription kit and qRT-PCR was performed with TaqMan universal master mix (Applied Biosystem) and specific primers for miR-130a, -138, -181a and -191. U18 was used as an internal control (Applied Biosystem). The expression of each gene and miR was defined from the threshold cycle (Ct), and relative expression levels were calculated by using the 2-ΔΔCt method after normalization with reference to the expression of the housekeeping gene U18.\nThe following compounds were tested according to the process of the invention, and the following results were obtained: […]"}, "Mir 181a": {"system": "Mir 181a", "assay": "Screening of active compounds: miR-181a expression by real time PCR in keratinocytes", "format": "cell-based, human", "details": "48 hours", "description": "as §1, with “extracted. Total RNA from cells was isolated using […] Isolation Kit (Ambion) by following the manufacturer's protocol for total RNA extraction. Total RNA was quantified using a NanoDrop Spectophotometer (Thermo Scientific, Delaware, USA) and RNA quality was controlled on an agarose gel. […] The expression of each gene and miR was defined from the threshold cycle (Ct), and relative expression levels were calculated by using the 2-ΔΔCt method after normalization with reference to the expression of the housekeeping gene U18. […]” for “extracted.”"}, "Mir 191": {"system": "Mir 191", "assay": "Screening of active compounds: miR-191 expression by real time PCR in keratinocytes", "format": "cell-based, human", "details": "48 hours, compound at 6. 10-5%", "description": "as §1\nTotal RNA from cells was isolated using mirVana mirRNA Isolation Kit (Ambion) by following the manufacturer's protocol for total RNA extraction. Total RNA was quantified using a NanoDrop Spectophotometer (Thermo Scientific, Delaware, USA) and RNA quality was controlled on an agarose gel. […] The expression of each gene and miR was defined from the threshold cycle (Ct), and relative expression levels were calculated by using the 2-ΔΔCt method after normalization with reference to the expression of the housekeeping gene U18. […]"}, "Sirt-1 3′UTR wt": {"system": "Sirt-1 3′UTR wt", "assay": "Luciferase reporter assay, Sirt-1 3′UTR wt, HEK 293E cells", "format": "cell-based, human", "details": "Sirt-1 3′UTR wt reporter, 12 pmol pre-miR, 24 hours after transfection", "description": "Human Sirt-1 3′UTR was amplified by PCR from the first nucleotide after stop codon to the last nucleotide before polyadenylation signal from human genomic DNA using the following primers:\nThe 1940 bp fragment (i.e. pSirT1 3′UTR wt), after SpeI restriction, was ligated to a compatible XbaI linearized pGL3 Control vector (Promega, Madison, Wis., USA).\n(§2) 2×10^5 HEK 293E cells were seeded in 12 well dishes 24 hours before transfection. Cells were transfected using Lipofectamine 2000 (Invitrogen) with 100 ng of pGL3 vectors (i.e. with Sirt-1 3′UTR wt or Sirt-1 3′UTR miR-138 del), 12 pmol of pre-miR-138 or pre-miR scramble sequence (Ambion), and 10 ng of Renilla luciferase pRL-CMV vector. Luciferase activities of cellular extracts were measured 24 hours after transfection, by using a Dual Luciferase Reporter Assay System (Promega); light emission was measured over 10 seconds using an OPTOCOMP I luminometer. Efficiency of transfection was normalised using Renilla luciferase activity.\n2×10^5 HEK 293E cells were seeded in 12 well dishes 24 hours before transfection. […] Luciferase activities of cellular extracts were measured 24 hours after transfection, by using a Dual Luciferase Reporter Assay System (Promega); light emission was measured over 10 seconds using an OPTOCOMP I luminometer. […]"}, "[1]": {"system": "Sirt-1 3′UTR miR-181a del", "assay": "Luciferase reporter assay, Sirt-1 3′UTR miR-181a del, HEK 293E cells", "format": "cell-based, human", "details": "Sit 3′UTR miR-181a del reporter, 24 hours after transfection", "description": "On the other hand, from this wild type sequence, the miR-181a predicted target site (7 bp, UGAAUGU) was deleted by PCR using the following overlapping primers:\nTherefore, the SirT1 3′UTR miR-181a del is obtained.\nas §2, with “miR-181a” for “miR-138”, “pre-miR-181a” for “pre-miR-138”"}, "SirT1 protein": {"system": "SirT1 protein", "assay": "Western blot of SirT1 in transfected human keratinocytes", "format": "cell-based", "details": "versus scrambled sequence (Ctrl)", "description": "Human primary keratinocytes were cultured in EpiLife medium with HKGS growth supplements (Cascade) and treated with CaCl2 1.2 mM in order to induce the differentiation process. Differentiated cells were harvested after 7 days of treatment for microRNA levels analysis. Human primary keratinocytes were transfected with human pre-miR-138, anti-miR-138 and Cy3-labeled negative control (Ambion, Texas, USA) using the SiPORT neoFX transfection agent (Ambion) according to manufacturer protocols. 16 hrs after transfection, the medium was removed and replaced with fresh medium.\n(§3) Total cell extracts were resolved on a SDS polyacrylamide gel, blotted on a Hybond P PVDF membrane (G&E Healthcare, UK). Membranes were blocked with PBST 5% non fat dry milk, incubated with primary antibodies for 2 h at room temperature, washed and hybridized for 1 h at room temperature using the appropriate horseradish peroxidase-conjugated secondary antibody (rabbit and mouse, BioRad, Hercules, Calif., USA). Detection was performed with the ECL chemiluminescence kit (Perkin Elmer, Waltham, Mass., USA).\nanti-Sirt-1 (Abcam, Cambridge, United Kingdom; 1/500 dilution), anti-β actin (Sigma, St Louis, Minn., USA; 1/5000 dilution), were used.\nThe human primary keratinocytes described in Example 1 are used in this example. […]"}, "[2]": {"system": "proliferating keratinocytes", "assay": "Proliferation by BrdU incorporation (Click-iT EdU flow cytometry) after miR over-expression", "format": "cell-based", "details": "over-expression in proliferating human primary keratinocytes", "description": "(§4) The human primary keratinocytes described in Example 1 are used in this example. Human primary keratinocytes were cultured in EpiLife medium with HKGS growth supplements (Cascade). […] 16 hrs after transfection, the medium was removed and replaced with fresh medium.\nMethods used to evaluate cell proliferation are generally based on incorporation of bromodeoxyuridine (BrdU) during DNA synthesis. The Click-iT™ EdU flow cytometry assay kit is a novel alternative to BrdU assay (Molecular Probes, Eugene, Oreg., USA). […] Briefly, cells were incubated with EdU for 4 hrs. After incubation, samples were fixed, permeabilized and stained according to the manufacturer's protocol. Cell cycle was analysed using a FACSCalibur flow cytometer (BD Biosciences, San Jose, Calif., USA). Fifteen thousand events were evaluated using the Cell Quest (BD) and Modfit LT (Verity Software; BD) programs."}, "[3]": {"system": "proliferating keratinocytes", "assay": "Senescence-associated β-galactosidase staining after miR over-expression", "format": "cell-based", "details": "over-expression in proliferating human primary keratinocytes", "description": "as §4\nCells were plated in 6-well culture plates, washed with PBS, and fixed with 2% formaldehyde/0.2% glutaraldehyde in PBS for 5 minutes. After another washing step with PBS, cells were incubated with β-galactosidase staining solution (150 mmol/L NaCl, 2 mmol/L MgCl2, 5 mmol/L potassium ferricyanide, 5 mmol/L potassium ferrocyanide, 40 mmol/L citric acid, 12 mmol/L sodium phosphate, pH 6.0, containing 1 mg/mL 5-bromo-4-chloro-3-indolyl-β-Dgalactoside [X-gal]) for 24 hours at 37° C. The reaction was stopped by replacing the staining solution with 70% glycerol."}, "CDK6 3′UTR wt": {"system": "CDK6 3′UTR wt", "assay": "Luciferase reporter assay, CDK6 3′UTR wt, HEK 293E cells", "format": "cell-based", "details": "CDK6 3′UTR wt reporter, 24 hours after transfection", "description": "as §2, with “vectors” for “vectors (i.e. with Sirt-1 3′UTR wt or Sirt-1 3′UTR miR-138 del),”, “pre-miR-191” for “pre-miR-138”"}, "CDK6 protein": {"system": "CDK6 protein", "assay": "Western blot of CDK6 in transfected human keratinocytes", "format": "cell-based", "details": "versus scrambled sequence (Ctrl)", "description": "The human primary keratinocytes described in Example 1 are used in this example. Human primary keratinocytes were cultured in EpiLife medium with HKGS growth supplements (Cascade) and treated with CaCl2 1.2 mM in order to induce the differentiation process. Differentiated cells were harvested after 7 days of treatment for microRNA levels analysis. Human primary keratinocytes were transfected with human pre-miR-191, anti-miR-191 and Cy3-labeled negative control (Ambion, Texas, USA) using the SiPORT neoFX transfection agent (Ambion) according to manufacturer protocols. 16 hrs after transfection, the medium was removed and replaced with fresh medium.\nas §3\nPolyclonal anti-CDK-6 (Santa Cruz, sc-177, dilution 1:2000), anti-β actin (Sigma, St Louis, Minn., USA; 1/5000 dilution), were used."}}, "note": "Entries after “also recorded” stand apart in the source; their conditions may differ.", "data": [{"molecule": "CCCCC[C@H](O)CC(=O)CCc1ccc(O)c(OC)c1", "note": "[Gingerol 6]", "values": [{"measurement": "inhibition of Mir 130a expression", "setting": "Mir 130a; compound at 6. 10-5%", "result": ">20 (37%)"}, {"measurement": "inhibition of Mir 181a expression", "setting": "Mir 181a; compound at 6. 10-5%", "result": ">20 (29%)"}, {"measurement": "inhibition of Mir 191 expression", "setting": "Mir 191", "result": ">20 (24%)"}]}, {"molecule": "Oc1ccc(C=Cc2cc(O)cc(O)c2)cc1", "note": "[Resveratrol]", "values": [{"measurement": "inhibition of Mir 130a expression", "setting": "Mir 130a; compound at 4. 10-4%", "result": ">20 (25%)"}, {"measurement": "inhibition of Mir 181a expression", "setting": "Mir 181a; compound at 4. 10-4%", "result": ">20 (21%)"}]}, {"molecule": "COC(=O)C1Cc2cc(OC(C)=O)c(OC(C)=O)cc2N1C(C)=O", "note": "(centres unmarked) [Tryacetyl-leukodopachrome methyl ester]", "values": [{"measurement": "inhibition of Mir 130a expression", "setting": "Mir 130a; compound at 10-3%", "result": "20 (10-3%)"}]}, {"molecule": "pre-miR-181a: human pre-miR-181a (Ambion) transfected to over-express miR-181a (SEQ ID No. 3) [reference compound]", "values": [{"measurement": "luciferase activity", "setting": "Sirt-1 3′UTR wt", "result": "0.648±0.1", "unit": "fold over control"}, {"measurement": "luciferase activity", "setting": "[1]", "result": "0.93±0.09", "unit": "fold over control"}, {"measurement": "SirT1 protein level (Western blot)", "setting": "SirT1 protein", "result": "markedly diminished"}, {"measurement": "proliferation as evaluated by BrdU incorporation", "setting": "[2]; listed as miR181a", "result": "significantly diminished"}, {"measurement": "proliferation as evaluated by BrdU incorporation", "setting": "[2]; listed as miR-181a", "result": "strong effect on inhibition of proliferation"}, {"measurement": "senescence as evaluated by SA-β-galactosidase staining", "setting": "[3]; listed as miR-181a", "result": "sufficient per se to induce senescence; also recorded: significantly increase"}]}, {"molecule": "B1", "values": [{"measurement": "luciferase activity", "setting": "CDK6 3′UTR wt", "result": "0.78±0.1", "unit": "fold over control"}, {"measurement": "CDK6 protein level (Western blot)", "setting": "CDK6 protein", "result": "markedly diminished"}, {"measurement": "proliferation as evaluated by BrdU incorporation", "setting": "[2]; listed as miR191", "result": "significantly diminished"}, {"measurement": "proliferation as evaluated by BrdU incorporation", "setting": "[2]; listed as miR-191", "result": "strong effect on inhibition of proliferation"}, {"measurement": "senescence as evaluated by SA-β-galactosidase staining", "setting": "[3]; listed as miR-191", "result": "significantly increase; also recorded: sufficient per se to induce senescence"}]}]}
